Columns and labels:
[1] = test system: isolated portal vein preparation / paced isolated papillary heart muscle preparation; assay: Specificity towards smooth muscle relaxation: isolated portal vein versus paced papillary heart muscle in an organ bath; parameters: species or system Wistar rats; settings: "separation" value: averaged difference of -log ED50 portal vein (vasodilatation) and -log ED50 papillary muscle (myocardial depression), transformed into numeric format
Method: The specificity towards smooth muscle relaxation was examined as follows: The isolated portal vein preparation of Wistar rats was mounted in an organ bath together with a paced isolated papillary heart muscle preparation of the same animal. The integrated contractile activity of the portal vein smooth muscle and the peak force amplitude of the papillary, myocardial, preparation were recorded. The respective activities during a 30 min control period were set as 100 per cent and the ensuing activities under the influence of an agent under study were expressed as a percentage thereof. The agent was administered at 10 min intervals and the potency for vasodilatation(-log ED50 of-portal vein) and that of myocardial depression (-log ED50 of papillary muscle) were determined by interpolation from the concentration-effect relationships determined in each experiment. A "separation" value was determined for each compound by averaging the differences of the -log ED50 values for vasodilatation and myocardial depression, respectively, obtained in the experiments. This logarithmic separation value was transformed into numeric format and entered into table 2.

[2] = test system: spontaneously hypertensive rats (SHR) of the Okamoto strain; assay: Antihypertensive effect in conscious, unrestrained spontaneously hypertensive rats, oral dosing; assay type: in vivo; settings: Rattus norvegicus; dose giving 20 per cent reduction of mean arterial BP, by interpolation; oral intubation, cumulated doses at 2 hour intervals, suspended in methocel solution
Method: The antihypertensive effect of the compounds was tested in conscious, unrestrained spontaneously hypertensive rats (SHR) of the Okamoto strain. The animals had been prepared by prior implantation of indwelling catheters in the abdominal aorta via the femoral artery. Mean arterial blood pressure (MABP) and heart rate were continuously monitored. After a 2 hour control period the compound under study was administered by oral intubation at 2 hour intervals, suspended in methocel solution (5 ml/kg bodyweight). The cumulated doses were […] bodyweight. The antihypertensive response, i.e. the BP reduction to each dose, was expressed as a percentage of the initial control BP level and plotted against the dose on a logarithmic scale. The dose which would give 20 per cent BP reduction was then determined by interpolation.

SMILES	Ratio heart vasc. [1]	ED20 [2] [µmol/kg]
COC(=O)C1=C(C)NC(C)=C(C(=O)OC)C1c1ccccc1[N+](=O)[O-] [Nifedipin, 2,6-dimethyl-4-(2-nitrophenyl)-1,4-dihydropyridine-3,5-dicarboxylic acid-3,5-dimethylester, reference compound]	15	5
CCOC(=O)C1=C(C(C)C)NC(C)=C(C(=O)OC)C1c1cccc(Cl)c1Cl (stereo not drawn) [Example 1, 2-isopropyl-4-(2,3-dichlorophenyl)-6-methyl-1,4-dihydropyridine-3,5-dicarboxylic acid-3-ethylester-5-methylester]	98	2.5
CCOC(=O)C1=C(COC)NC(C)=C(C(=O)OC)C1c1cccc(Cl)c1Cl (stereo not drawn) [Example 2, 2-methoxymethyl-4-(2,3-dichlorophenyl)-6-methyl-1,4-dihydropyridine-3,5-dicarboxylic acid-3-ethylester-5-methylester]	158	2

— EP0031801A2, “6-Substituted 4-(2',3'-dichlorophenyl)-2-methyl-1,4-dihydropyridine-3,5-dicarboxylic acid diesters having hypotensive properties as well as process for their preparation and pharmaceutical preparations containing same” (priority 1979, dated 1981)
